Data from US20240025893A1, “PYRIMIDINE-AND NITROGEN-CONTAINING BICYCLIC COMPOUND” (Asahi Kasei Pharma Corporation, priority 2020, published 2024).

Columns and labels:
[1] = molecular target: human IRAK-4 (Homo sapiens (Human), UniProt Q9NWZ3); assay: Measurement of human IRAK-4 inhibitory activity (TR-FRET, peptide substrate phosphorylation, 10 μM ATP); assay type: biochemical; details: 1 nM IRAK-4, 10 μM ATP, 23° C., 30 minutes; average values
Outline: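 With 1 nM IRAK-4, 0.5 μM biotinylated peptide and 10 μM ATP, compound incubated 30 min at 23 °C in 50 mM HEPES pH 7.2 with Mg2+/Mn2+. Stopped with EDTA plus europium-cryptate anti-phosphopeptide antibody and streptavidin-XL665, 60 min at 23 °C. Activity taken as the 665/620 nm TR-FRET ratio.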

[2] = system: LPS-stimulated TNFα production in THP-1 cells; assay: LPS-stimulated TNFα production inhibition test using human acute monocytic leukemia cell strain THP-1; assay type: cell-based; details: Homo sapiens, THP-1, 4 h, LPS 2.5 ng/mL, average values
Outline: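 THP-1 cells were preincubated with compound for 1 h at 37 °C, then stimulated with LPS (2.5 ng/mL final) for 4 h. Supernatant TNFα was quantified by HTRF (620/665 nm ratio) against a calibration curve. IC50 came from a 4-parameter logistic fit, with no-LPS set as 100% and no-compound as 0% suppression.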

Chain of human IRAK-4 (Q9NWZ3 whole entry): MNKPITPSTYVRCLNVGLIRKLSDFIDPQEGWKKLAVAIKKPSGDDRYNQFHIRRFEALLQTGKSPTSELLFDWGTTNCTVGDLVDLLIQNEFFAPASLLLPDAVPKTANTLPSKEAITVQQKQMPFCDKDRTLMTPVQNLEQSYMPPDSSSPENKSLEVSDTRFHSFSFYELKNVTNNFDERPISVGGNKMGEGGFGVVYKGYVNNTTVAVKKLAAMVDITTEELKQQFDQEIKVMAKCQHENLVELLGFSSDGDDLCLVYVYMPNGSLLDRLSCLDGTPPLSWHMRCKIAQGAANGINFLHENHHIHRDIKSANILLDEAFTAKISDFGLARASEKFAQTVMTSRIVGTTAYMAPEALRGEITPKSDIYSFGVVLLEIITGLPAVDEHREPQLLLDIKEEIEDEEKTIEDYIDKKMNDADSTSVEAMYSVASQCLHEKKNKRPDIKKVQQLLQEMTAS

Compound | IC50 [1] | IC50 [2]
CCCOCc1ncc(-c2ccc3nc(NC(=O)[C@H]4C[C@@H](N5CCN(C(=O)c6ccc(C(F)(F)F)cn6)C[C@@H]5C)C4)sc3c2)cn1 [b-04-26] | 1.22 nM | 86 nM
Cc1noc(C)c1C(=O)N1CCN([C@H]2C[C@@H](C(=O)Nc3nc4ccc(-c5cnc(CO[C@H]6CCC[C@@H]6O)nc5)cc4s3)C2)[C@@H](C)C1 [b-04-27] | 1.6 nM | 108 nM
Cc1oncc1C(=O)N1CCN([C@H]2C[C@@H](C(=O)Nc3nc4ccc(-c5cnc(CO[C@H]6CCC[C@@H]6O)nc5)cc4s3)C2)[C@@H](C)C1 [b-04-29] | 1.6 nM | 55 nM
Cc1nc(C)c(C(=O)N2CCN([C@H]3C[C@@H](C(=O)Nc4nc5ccc(-c6cnc(CO[C@H]7CCC[C@@H]7O)nc6)cc5s4)C3)[C@@H](C)C2)s1 [b-04-32] | 1.57 nM | 50 nM
Cc1nc(C(=O)N2CCN([C@H]3C[C@@H](C(=O)Nc4nc5ccc(-c6cnc(CO[C@H]7CCC[C@@H]7O)nc6)cc5s4)C3)[C@@H](C)C2)co1 [b-04-36] | 0.9 nM | 48 nM
Cc1cc(C(=O)N2CCN([C@H]3C[C@@H](C(=O)Nc4nc5ccc(-c6cnc(CO[C@H]7CCC[C@@H]7O)nc6)cc5s4)C3)[C@@H](C)C2)cc(C)n1 [b-04-40] | 0.89 nM | 25 nM
CCCOCc1ncc(-c2ccc3nc(NC(=O)[C@H]4C[C@@H](N5CCN(C(=O)c6cc(F)ccn6)C[C@@H]5C)C4)sc3c2)cn1 [b-04-41] | 0.69 nM | 76 nM
CCCOCc1ncc(-c2ccc3nc(NC(=O)[C@H]4C[C@@H](N5CCN(C(=O)c6cc(C)ccn6)C[C@@H]5C)C4)sc3c2)cn1 [b-04-42] | 0.49 nM | 64 nM
CCCOCc1ncc(-c2ccc3nc(NC(=O)[C@H]4C[C@@H](N5CCN(C(=O)c6ccncc6Cl)C[C@@H]5C)C4)sc3c2)cn1 [b-04-43] | 0.65 nM | 96 nM
CC(=O)N1CCN([C@H]2C[C@@H](C(=O)Nc3nc4ccc(-c5cnc(CO[C@H]6CCC[C@@H]6O)nc5)cc4s3)C2)[C@@H](C)C1 [b-05-01, (1R,3s)-3-((S)-4-Acetyl-2-methylpiperazin-1-yl)-N-(6-(2-((((1S,2S)-2-hydroxycyclopentyl)oxy)methyl)pyrimidin-5-yl)benzo[d]thiazol-2-yl)cyclobutane-1-carboxamide] | 1.9 nM | 48 nM
C[C@H]1CN(C(=O)C2CC2)CCN1[C@H]1C[C@@H](C(=O)Nc2nc3ccc(-c4cnc(CO[C@H]5CCC[C@@H]5O)nc4)cc3s2)C1 [b-05-02] | 2.47 nM | 56 nM
COCC(=O)N1CCN([C@H]2C[C@@H](C(=O)Nc3nc4ccc(-c5cnc(CO[C@H]6CCC[C@@H]6O)nc5)cc4s3)C2)[C@@H](C)C1 [b-05-03] | 1.81 nM | 50 nM
CCC(=O)N1CCN([C@H]2C[C@@H](C(=O)Nc3nc4ccc(-c5cnc(CO[C@H]6CCC[C@@H]6O)nc5)cc4s3)C2)[C@@H](C)C1 [b-05-05] | 1.95 nM | 50 nM
CC(C)C(=O)N1CCN([C@H]2C[C@@H](C(=O)Nc3nc4ccc(-c5cnc(CO[C@H]6CCC[C@@H]6O)nc5)cc4s3)C2)[C@@H](C)C1 [b-05-06] | 2.25 nM | 46 nM
C[C@H]1CN(C(=O)C2CCC2)CCN1[C@H]1C[C@@H](C(=O)Nc2nc3ccc(-c4cnc(CO[C@H]5CCC[C@@H]5O)nc4)cc3s2)C1 [b-05-07] | 2.51 nM | 44 nM
C[C@H]1CN(C(=O)N2CCC2)CCN1[C@H]1C[C@@H](C(=O)Nc2nc3ccc(-c4cnc(CO[C@H]5CCC[C@@H]5O)nc4)cc3s2)C1 [b-05-09] | 2.13 nM | 44 nM
C[C@H]1CN(C(=O)Nc2ccccc2)CCN1[C@H]1C[C@@H](C(=O)Nc2nc3ccc(-c4cnc(CO[C@H]5CCC[C@@H]5O)nc4)cc3s2)C1 [b-06-02] | 4.19 nM | 46 nM
C[C@H]1CN(CC(F)(F)F)CCN1C1CC(C(=O)Nc2nc3ccc(-c4cnc(CO[C@H]5CCC[C@@H]5O)nc4)cc3s2)C1 (stereo partly drawn) [b-07-01, N-(6-(2-((((1S,2S)-2-Hydroxycyclopentyl)oxy)methyl)pyrimidin-5-yl)benzo[d]thiazol-2-yl)-3-((S)-2-methyl-4-(2,2,2-trifluoroethyl)piperazin-1-yl)cyclobutane-1-carboxamide] | 2.34 nM | 58 nM
C[C@H]1CN(C2CC2)CCN1C1CC(C(=O)Nc2nc3ccc(-c4cnc(CO[C@H]5CCC[C@@H]5O)nc4)cc3s2)C1 (stereo partly drawn) [b-08-01, 3-((S)-4-Cyclopropyl-2-methylpiperazin-1-yl)-N-(6-(2-((((1S,2S)-2-hydroxycyclopentyl)oxy)methyl)pyrimidin-5-yl)benzo[d]thiazol-2-yl)cyclobutane-1-carboxamide] | 1.97 nM | 56 nM
COc1c(-c2cnc(CO[C@H]3CCC[C@@H]3O)nc2)ccc2nc(NC(=O)[C@@H]3C[C@H]3C)sc12 [c-02-01] | 3.7 nM | 110 nM
COc1c(-c2cnc(CO[C@H]3CCC[C@@H]3O)nc2)ccc2nc(NC(=O)[C@H]3C[C@H]3F)sc12 [c-02-04] | 3.35 nM | 261 nM
COc1c(-c2cnc(CO[C@H]3CCC[C@@H]3O)nc2)ccc2nc(NC(=O)[C@H]3C[C@@](C)(O)C3)sc12 [c-02-05] | 4.64 nM | 175 nM
COc1c(-c2cnc(CO[C@H]3CCC[C@@H]3O)nc2)ccc2nc(NC(=O)C3CC34CC4)sc12 (stereo partly shown) [c-02-06] | 2.13 nM | 194 nM
COc1c(-c2cnc(CO[C@H]3CCC[C@@H]3O)nc2)ccc2nc(NC(=O)C3CC(OC(C)(C)C)C3)sc12 (stereo partly shown) [c-02-07] | 1.56 nM | 76 nM
COc1c(-c2cnc(CO[C@H]3CCC[C@@H]3O)nc2)ccc2nc(NC(=O)[C@@H]3C[C@@H]3F)sc12 [c-02-08] | 2.44 nM | 196 nM
COc1c(-c2cnc(CO[C@H]3CCC[C@@H]3O)nc2)ccc2nc(NC(=O)[C@H]3C[C@@H](N4CCN(C(=O)OC(C)(C)C)C[C@@H]4C)C3)sc12 [c-03-01, tert-Butyl (S)-4-((1s,3R)-3-((6-(2-((((1S,2S)-2-hydroxycyclopentyl)oxy)methyl)pyrimidin-5-yl)-7-methoxybenzo[d]thiazol-2-yl)carbamoyl)cyclobutyl)-3-methylpiperazine-1-carboxylate] | 16.6 nM | 49 nM

The remaining lines, values ahead:

IC50 [1] | IC50 [2] | Compound
1.58 nM | 72 nM | C[C@H]1CN(C(=O)c2ccnnc2)CCN1[C@H]1C[C@@H](C(=O)Nc2nc3ccc(-c4cnc(CO[C@H]5CCC[C@@H]5O)nc4)cc3s2)C1 [b-04-28]
1.49 nM | 62 nM | C[C@H]1CN(C(=O)c2cccnc2C(F)(F)F)CCN1[C@H]1C[C@@H](C(=O)Nc2nc3ccc(-c4cnc(CO[C@H]5CCC[C@@H]5O)nc4)cc3s2)C1 [b-04-30]
1.73 nM | 55 nM | C[C@H]1CN(C(=O)c2nccs2)CCN1[C@H]1C[C@@H](C(=O)Nc2nc3ccc(-c4cnc(CO[C@H]5CCC[C@@H]5O)nc4)cc3s2)C1 [b-04-31]
1.99 nM | 55 nM | C[C@H]1CN(C(=O)c2ccno2)CCN1[C@H]1C[C@@H](C(=O)Nc2nc3ccc(-c4cnc(CO[C@H]5CCC[C@@H]5O)nc4)cc3s2)C1 [b-04-33]
1.65 nM | 66 nM | C[C@H]1CN(C(=O)c2cnccn2)CCN1[C@H]1C[C@@H](C(=O)Nc2nc3ccc(-c4cnc(CO[C@H]5CCC[C@@H]5O)nc4)cc3s2)C1 [b-04-34]
2.08 nM | 37 nM | C[C@H]1CN(C(=O)c2ccnc(C(F)(F)F)c2)CCN1[C@H]1C[C@@H](C(=O)Nc2nc3ccc(-c4cnc(CO[C@H]5CCC[C@@H]5O)nc4)cc3s2)C1 [b-04-35]
0.81 nM | 35 nM | C[C@H]1CN(C(=O)c2ccc(Cl)cn2)CCN1[C@H]1C[C@@H](C(=O)Nc2nc3ccc(-c4cnc(CO[C@H]5CCC[C@@H]5O)nc4)cc3s2)C1 [b-04-37]
0.85 nM | 87 nM | C[C@H]1CN(C(=O)c2cncnc2)CCN1[C@H]1C[C@@H](C(=O)Nc2nc3ccc(-c4cnc(CO[C@H]5CCC[C@@H]5O)nc4)cc3s2)C1 [b-04-38]
0.66 nM | 44 nM | C[C@H]1CN(C(=O)c2ccon2)CCN1[C@H]1C[C@@H](C(=O)Nc2nc3ccc(-c4cnc(CO[C@H]5CCC[C@@H]5O)nc4)cc3s2)C1 [b-04-39]
0.46 nM | 23 nM | Cc1ccc(C(=O)N2CCN([C@H]3C[C@@H](C(=O)Nc4nc5ccc(-c6cnc(CO[C@H]7CCC[C@@H]7O)nc6)cc5s4)C3)[C@@H](C)C2)cn1 [b-04-44]
0.66 nM | 15 nM | COc1ccc(C(=O)N2CCN([C@H]3C[C@@H](C(=O)Nc4nc5ccc(-c6cnc(CO[C@H]7CCC[C@@H]7O)nc6)cc5s4)C3)[C@@H](C)C2)cn1 [b-04-45]
0.58 nM | 22 nM | C[C@H]1CN(C(=O)c2cc(F)ccn2)CCN1[C@H]1C[C@@H](C(=O)Nc2nc3ccc(-c4cnc(CO[C@H]5CCC[C@@H]5O)nc4)cc3s2)C1 [b-04-46]
0.54 nM | 26 nM | Cc1ccnc(C(=O)N2CCN([C@H]3C[C@@H](C(=O)Nc4nc5ccc(-c6cnc(CO[C@H]7CCC[C@@H]7O)nc6)cc5s4)C3)[C@@H](C)C2)c1 [b-04-47]
0.52 nM | 35 nM | C[C@H]1CN(C(=O)c2ccncc2Cl)CCN1[C@H]1C[C@@H](C(=O)Nc2nc3ccc(-c4cnc(CO[C@H]5CCC[C@@H]5O)nc4)cc3s2)C1 [b-04-48]
4.38 nM | 24 nM | C[C@H]1CN(C(=O)c2ccccc2)CCN1[C@H]1C[C@@H](C(=O)Nc2nc3ccc(-c4cnc(CO[C@H]5CCC[C@@H]5O)nc4)cc3s2)C1 [b-05-04]
